Data published in patent US10173968B2, “Bishydrazone-based antifungal agents” (University of Kentucky Research Foundation, priority 2016, dated 2019).
Where two headings read alike, the source gives them in different places.

Columns and labels:
[1] = test system: A. baumannii ATCC 19606; assay: Antibacterial MIC, double-dilution method; assay type: cell-based; conditions: Acinetobacter baumannii, ATCC19606
Method: (§1) MIC values were determined against a variety of Gram-positive (strains A-D) and Gram-negative (E-J) bacterial and mycobacterial (K) strains using the double-dilution method, as previously published. Preliminary screening was performed using 500 μM of each compound.

[2] = test system: B. subtilis 168; assay: Antibacterial MIC, double-dilution method; assay type: cell-based; conditions: Bacillus subtilis, strain A, Gram-positive
Method: as §1

[3] = test system: E. cloacae ATCC 13047; assay: Antibacterial MIC, double-dilution method; assay type: cell-based; conditions: Enterobacter cloacae, ATCC13047
Method: as §1

[4] = test system: E. coli MC1061; assay: Antibacterial MIC, double-dilution method; assay type: cell-based; conditions: Escherichia coli, strain G, Gram-negative, read-out: MIC
Method: as §1

[5] = test system: K. pneumoniae ATCC 27736; assay: Antibacterial MIC, double-dilution method; assay type: cell-based; conditions: Klebsiella pneumoniae, ATCC27736
Method: as §1

[6] = test system: L. monocytogenes ATCC 19115; assay: Antibacterial MIC, double-dilution method; assay type: cell-based; conditions: Listeria monocytogenes, ATCC19115, strain B, Gram-positive, read-out: MIC
Method: as §1

[7] = test system: M. smegmatis MC2-155; assay: Antibacterial MIC, double-dilution method; assay type: cell-based; conditions: mycobacterial
Method: as §1

[8] = test system: MRSA; assay: Antibacterial MIC, double-dilution method; assay type: cell-based; conditions: Staphylococcus aureus, strain C, Gram-positive, read-out: MIC
Method: as §1

[9] = test system: P. aeruginosa ATCC 27853; assay: Antibacterial MIC, double-dilution method; assay type: cell-based; conditions: Pseudomonas aeruginosa, ATCC27853
Method: as §1

[10] = test system: S. enterica ATCC 14028; assay: Antibacterial MIC, double-dilution method; assay type: cell-based; conditions: Salmonella enterica, ATCC14028
Method: as §1

[11] = test system: VRE; assay: Antibacterial MIC, double-dilution method; assay type: cell-based; conditions: Enterococcus, strain D, Gram-positive, read-out: MIC
Method: as §1

[12] = test system: C. albicans ATCC 1003; assay: Antifungal MIC, CLSI M27-A3 microbroth dilution; assay type: cell-based, Candida albicans
Method: (§2) In vitro MIC testing was performed according to the CLSI M27-A3 standard microbroth dilution methodology for the susceptibility testing of yeasts with minor modifications.

[13] = test system: C. albicans ATCC 10231; assay: Antifungal MIC, CLSI M27-A3 microbroth dilution; assay type: cell-based, Candida albicans; conditions: C. albicans ATCC 10231, resistant to FLC, ITC, and VOR
Method: as §2

[14] = test system: C. albicans ATCC 1237; assay: Antifungal MIC, CLSI M27-A3 microbroth dilution; assay type: cell-based, Candida albicans; conditions: ITC, and VOR
Method: as §2

[15] = test system: C. albicans ATCC 2310; assay: Antifungal MIC, CLSI M27-A3 microbroth dilution; assay type: cell-based, Candida albicans; conditions: C. albicans ATCC 2310, susceptible to FLC, ITC, and VOR
Method: as §2

[16] = test system: C. albicans ATCC 2876; assay: Antifungal MIC, CLSI M27-A3 microbroth dilution; assay type: cell-based, Candida albicans; conditions: C. albicans ATCC 2876, susceptible to FLC, ITC, and VOR
Method: as §2

[17] = test system: C. albicans ATCC 64124; assay: Antifungal MIC, CLSI M27-A3 microbroth dilution; assay type: cell-based, Candida albicans; conditions: C. albicans ATCC 64124, resistant to FLC, ITC, and VOR
Method: as §2

[18] = test system: C. albicans ATCC 90819; assay: Antifungal MIC, CLSI M27-A3 microbroth dilution; assay type: cell-based, Candida albicans; conditions: C. albicans ATCC 90819, resistant to FLC, ITC, and VOR
Method: as §2

[19] = strain E, Gram-negative, converted from μM, read-out: MIC
[20] = strain E, Gram-negative, range 0.5 to 500 μM, read-out: MIC
[21] = strain F, Gram-negative, converted from μM, read-out: MIC
[22] = strain F, Gram-negative, range 0.5 to 500 μM, read-out: MIC
[23] = strain H, Gram-negative, converted from μM, read-out: MIC
[24] = strain H, Gram-negative, range 0.5 to 500 μM, read-out: MIC
[25] = Mycolicibacterium smegmatis, MC2155, strain K, converted from μM, read-out: MIC
[26] = strain I, Gram-negative, converted from μM, read-out: MIC
[27] = strain I, Gram-negative, range 0.5 to 500 μM, read-out: MIC
[28] = strain J, Gram-negative, range 0.5 to 500 μM, read-out: MIC
[29] = Candida albicans, ATCC1003, C. albicans ATCC 1003, converted from μg/mL, read-out: MIC
[30] = Candida albicans, ATCC1003, read-out: MIC
[31] = Candida albicans, ATCC10231, converted from μg/mL, read-out: MIC
[32] = Candida albicans, ATCC10231, read-out: MIC
[33] = Candida albicans, ATCC1237, C. albicans ATCC 1237, resistant to FLC, converted from μg/mL, read-out: MIC
[34] = Candida albicans, ATCC1237, C. albicans ATCC 1237, resistant to FLC, read-out: MIC
[35] = Candida albicans, ATCC2310, converted from μg/mL, read-out: MIC
[36] = Candida albicans, ATCC2310, read-out: MIC
[37] = Candida albicans, ATCC2876, converted from μg/mL, read-out: MIC
[38] = Candida albicans, ATCC2876, read-out: MIC
[39] = Candida albicans, ATCC64124, converted from μg/mL, read-out: MIC
[40] = Candida albicans, ATCC64124, read-out: MIC
[41] = Candida albicans, ATCC90819, converted from μg/mL, read-out: MIC
[42] = Candida albicans, ATCC90819, read-out: MIC
[43] = Mycolicibacterium smegmatis, MC2155, strain K, range 0.5 to 500 μM, read-out: MIC

| SMILES | MIC [1, 20] [µM] | MIC [3, 22] [µM] | MIC ([4]; converted from μM) [µg/mL] | MIC ([4]; range 0.5 to 500 μM) [µM] | MIC [5, 24] [µM] | MIC ([6]; converted from μM) [µg/mL] | MIC ([6]; range 0.5 to 500 μM) [µM] | MIC [7, 25] [µg/mL] | MIC [9, 27] [µM] | MIC ([11]; converted from μM) [µg/mL] | MIC ([11]; range 0.5 to 500 μM) [µM] | MIC [12, 29] [µM] | MIC [12, 30] [µg/mL] | MIC [13, 31] [µM] | MIC [13, 32] [µg/mL] | MIC [14, 33] [µM] | MIC [14, 34] [µg/mL] | MIC [15, 35] [µM] | MIC [15, 36] [µg/mL] | MIC [16, 37] [µM] | other results |
| --- | --- | --- | --- | --- | --- | --- | --- | --- | --- | --- | --- | --- | --- | --- | --- | --- | --- | --- | --- | --- | --- |
| C/C(=N\NC(=N)N)c1cccc(/C(C)=N/NC(=N)N)c1.Cl.Cl [Compound 4H, (2E,2′E)-2,2′-(1,3-Phenylenebis(ethan-1-yl-1-ylidene))bis(hydrazine-1-carboximidamide) dihydrochloride] | > 500 | > 500 | > 173 | > 500 | > 500 | 86.8 | 250 | 5.4 | 500 | 43.4 | 125 | > 90.1 | > 31.3 | > 90.1 | > 31.3 | 90.1 | 31.3 | 90.1 | 31.3 | 22.5 | MIC [1, 19]: > 173 µg/mL; MIC ([2]; converted from μM): 86.8 µg/mL; MIC ([2]; range 0.5 to 500 μM): 250 µM; MIC [3, 21]: > 173 µg/mL; MIC [5, 23]: > 173 µg/mL; MIC ([7]; Mycolicibacterium smegmatis, MC2155, strain K, range 0.5 to 500 μM): 15.6 to 31.3 µM; MIC ([7]; strain K, range 0.5 to 500 μM, dihydrochloride): (15.6) μM; MIC ([8]; converted from μM): > 173 µg/mL; MIC ([8]; range 0.5 to 500 μM): > 500 µM; MIC [9, 26]: 173 µg/mL; MIC ([10]; strain J, Gram-negative, converted from μM, read-out: MIC): 21.7 to 86.8 µg/mL; MIC [10, 28]: 62.5 to 250 µM; MIC [16, 38]: 7.8 µg/mL; MIC [17, 39]: > 90.1 µM; MIC [17, 40]: > 31.3 µg/mL; MIC [18, 41]: > 90.1 µM; MIC [18, 42]: > 31.3 µg/mL |
| Cl.Cl.N=C(N)N/N=C/c1ccc(-c2ccc(/C=N/NC(=N)N)cc2)cc1 [Compound 3A, (2E,2′E)-2,2′-([1,1′-Biphenyl]-4,4′-diylbis(methanylylidene))bis(hydrazine-1-carboximidamide) dihydrochloride] | > 500 | > 500 | > 198 | > 500 | > 500 | 0.4 | 1 | > 198 | > 500 | 0.8 | 2 | 19.7 | 7.8 | 39.5 | 15.6 | 39.5 | 15.6 | > 79.2 | > 31.3 | 19.7 | MIC [1]: > 198 µg/mL; MIC ([2]; converted from μM): > 198 µg/mL; MIC ([2]; range 0.5 to 500 μM): > 500 µM; MIC [3]: > 198 µg/mL; MIC [5]: > 198 µg/mL; MIC [7, 43]: > 500 µM; MIC ([8]; converted from μM): 1.5 µg/mL; MIC ([8]; range 0.5 to 500 μM): 3.9 µM; MIC [9]: > 198 µg/mL; MIC [10]: > 198 µg/mL; MIC [10, 28]: > 500 µM; MIC [16, 38]: 7.8 µg/mL; MIC [17, 39]: > 79.2 µM; MIC [17, 40]: > 31.3 µg/mL; MIC [18, 41]: > 79.2 µM; MIC [18, 42]: > 31.3 µg/mL |
| C/C(=N\NC(=N)N)c1ccc(Oc2ccc(/C(C)=N/NC(=N)N)cc2)cc1.Cl.Cl [Compound 4E, (2E,2′E)-2,2′-((Oxybis(4,1-phenylene))bis(ethan-1-yl-1-ylidene))bis(hydrazine-1 carboximidamide), dihydrochloride] | 62.5 | 250 | 54.9 | 125 | 62.5 | 27.5 | 62.5 | 54.9 to 110 | 62.5 | 1.7 | 3.9 | 17.8 | 7.8 | 17.8 | 7.8 | 17.8 | 7.8 | 17.8 | 7.8 | 8.9 | MIC [1, 19]: 27.5 µg/mL; MIC [3, 21]: 110 µg/mL; MIC [5, 23]: 27.5 µg/mL; MIC [7, 43]: 125 to 250 µM; MIC [9, 26]: 27.5 µg/mL; MIC [16, 38]: 3.9 µg/mL; MIC [17, 39]: 17.8 µM; MIC [17, 40]: 7.8 µg/mL; MIC [18, 41]: 17.8 µM; MIC [18, 42]: 7.8 µg/mL |
| C[C@@H]1[C@H](O)[C@@H](C)/C=C/C=C/C=C/C=C/C=C/C=C/C=C/[C@H](O[C@@H]2O[C@H](C)[C@@H](O)[C@H](N)[C@@H]2O)C[C@@H]2O[C@](O)(C[C@@H](O)C[C@@H](O)[C@H](O)CC[C@@H](O)C[C@@H](O)CC(=O)O[C@H]1C)C[C@H](O)[C@H]2C(=O)O [AmB, amphotericin B, reference compound] |  |  |  |  |  |  |  |  |  |  |  |  |  |  |  |  |  |  |  |  | MIC ([12]; C. albicans ATCC 1003, converted from μg/mL): (4.2) μM; MIC ([12]; C. albicans ATCC 1003, range 0.5 to […]): 3.9 µg/mL; MIC [13]: 3.9 µg/mL; MIC ([13]; converted from μg/mL): (4.2) μM; MIC ([14]; C. albicans ATCC 1237, resistant to FLC): 3.9 µg/mL; MIC ([14]; C. albicans ATCC 1237, resistant to FLC, converted from μg/mL): (4.2) μM; MIC [15]: 3.9 µg/mL; MIC ([15]; converted from μg/mL): (4.2) μM; MIC [16]: 3.9 µg/mL; MIC ([16]; converted from μg/mL): (4.2) μM; MIC [17]: 2.0 to 3.9 µg/mL; MIC ([17]; converted from μg/mL): (2.1-4.2) μM; MIC [18]: 2.0 µg/mL; MIC ([18]; converted from μg/mL): (2.1) μM |
